Assay results: patent US12337042B2, “Structural optimization method to improve the theranostic performance of peptide receptor-targeted radionuclide therapy for cancers” (University of Iowa Research Foundation, priority 2020, dated 2025)
Where two headings read alike, the source gives them in different places.

Key:
[1] = molecular target: T1, SSTR2-positive AR42J cells (Rattus norvegicus, UniProt P30680); test: ^125I-TOC competitive binding assay in AR42J cells
T1 construct: endogenous in cells; host or cells: AR42J rat pancreatic acinar cells
Procedure: ^125I-TOC Competitive Binding Assay
TOC was labeled with iodine-125 (^125I) by conventional chloramine T method as described elsewhere (23). 1.0×10^5 AR42J rat pancreatic acinar cells were plated into poly-D-lysine-coated 24-well plates. […] The cells were then washed twice with ice-cold PBS and lysed with 0.5 N NaOH, and the radioactivity was measured via a gamma counter. The half maximal inhibitory concentration (IC50) was determined using GraphPad Prism V8.0.

[2] = ^212Pb-PSC-PEG2-TOC toxicity studies with escalating doses; format: in vivo, CD-1 Elite (SOPF) male mice
Description: FIG. 12A-12F. Dosimetry and toxicities of escalated doses (up to 150 μCi) of ^212Pb—PSC-PEG2-TOC in CD-1 Elite (SOPF) male mice. (A) Body weight change after the injection of ^212Pb-PSC-PEG2-TOC. […] (B) ^212Pb-PSC-PEG2-TOC biodistribution in CD-1 Elite (SOPF) male mice. ^212Pb is used for the study to include the impact of potential demetallation of ^212Pb and redistribution in bone marrow. (C) Estimated renal dose arising from the escalating doses of ^212Pb-PSC-PEG2-TOC based on the biodistribution in CD-1 Elite (SOPF) male mice. Organ level internal dose assessment (OLINDA) V2.1 was used for dose estimation in mice using 30 g mouse voxel phantom model. (D-E) The levels of renal toxicity markers arising from the escalating doses of ^212Pb-PSC-PEG2-TOC assessed by urine neutrophil gelatinase-associated lipocalin (uNGAL; D) at day 1 and day 3 post-administration and blood urea nitrogen (BUN; E) at 3 months post-administration.
^212Pb-PSC-PEG2-TOC Toxicity Studies
Escalating doses (0, 0.37, 1.85, 3.33, and 5.55 MBq or 0, 10, 50, 90, and 150 μCi) of ^212Pb-PSC-PEG2-TOC were administered to tumor-free CD-1 Elite (SOPF) male mice (n=4 for each group). Body weight was measured 2 times a week by 3 weeks post-injection and 1 time a week afterwards. Urine samples were collected (via metabolic case) at day 1 and day 3 post-administration to evaluate acute tubular toxicities in kidneys. […]

[3] = AR42J cells, 2 hours at 37° C., mean ± spread, read-out: IC50, competitive inhibition of ^125I-tyr^3-octreotide (^125I-TOC) binding

T1 sequence (P30680 whole entry): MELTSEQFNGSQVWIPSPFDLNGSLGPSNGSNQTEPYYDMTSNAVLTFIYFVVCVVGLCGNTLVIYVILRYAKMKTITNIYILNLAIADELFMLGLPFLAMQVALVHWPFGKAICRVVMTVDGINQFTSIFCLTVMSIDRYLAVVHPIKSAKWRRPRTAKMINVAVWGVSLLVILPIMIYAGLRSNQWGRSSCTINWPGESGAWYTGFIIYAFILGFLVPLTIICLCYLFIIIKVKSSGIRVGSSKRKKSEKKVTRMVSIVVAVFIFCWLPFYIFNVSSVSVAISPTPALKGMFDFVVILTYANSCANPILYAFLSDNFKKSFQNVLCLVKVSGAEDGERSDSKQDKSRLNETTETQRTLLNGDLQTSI

| IC50 [1, 3] [nM] | Compound | other results |
| --- | --- | --- |
| 6.2 ± 1.1 | C[C@@H](O)[C@@H]1NC(=O)[C@H](CCCCN)NC(=O)[C@@H](Cc2c[nH]c3ccccc23)NC(=O)[C@H](Cc2ccc(O)cc2)NC(=O)[C@@H](NC(=O)[C@@H](Cc2ccccc2)NC(=O)CN2CCN(CC(=O)O)CCN(CC(N)=O)CCN(CC(=O)O)CC2)CSSC[C@@H](C(=O)N[C@H](CO)[C@@H](C)O)NC1=O [PSC-TOC] |  |
| 9.4 ± 1.3 | C[C@@H](O)[C@@H]1NC(=O)[C@H](CCCCN)NC(=O)[C@@H](Cc2c[nH]c3ccccc23)NC(=O)[C@H](Cc2ccc(O)cc2)NC(=O)[C@@H](NC(=O)[C@@H](Cc2ccccc2)NC(=O)CCOCCOCCOCCOCCNC(=O)CN2CCN(CC(=O)O)CCN(CC(N)=O)CCN(CC(=O)O)CC2)CSSC[C@@H](C(=O)N[C@H](CO)[C@@H](C)O)NC1=O [PSC-PEG4-TOC] |  |
|  | C[C@@H](O)[C@@H]1NC(=O)[C@H](CCCCN)NC(=O)[C@@H](Cc2c[nH]c3ccccc23)NC(=O)[C@H](Cc2ccc(O)cc2)NC(=O)[C@@H](NC(=O)[C@@H](Cc2ccccc2)NC(=O)CCOCCOCCNC(=O)CN2CCN(CC(=O)O)CCN(CC(N)=O)CCN(CC(=O)O)CC2)CSSC[C@@H](C(=O)N[C@H](CO)[C@@H](C)O)NC1=O [^212Pb-PSC-PEG2-TOC, metal not drawn] | hematologic toxicity by complete blood count (CBC) ([2]; doses up to 150 μCi, week 1, 2, and 4 post-administration): reversible hematologic toxicity; body weight change after injection ([2]; escalated doses up to 150 μCi, tumor-free mice): After an initial decrease in body weight in first days, the body weight of the treated mice increased gradually |
|  | C[C@@H](O)[C@@H]1NC(=O)[C@H](CCCCN)NC(=O)[C@@H](Cc2c[nH]c3ccccc23)NC(=O)[C@H](Cc2ccc(O)cc2)NC(=O)[C@@H](NC(=O)[C@H](N)Cc2ccccc2)CSSC[C@@H](C(=O)N[C@H](CO)[C@@H](C)O)NC1=O [TOC, Tyr^3-octreotide, reference compound] | IC50 [1]: 3.1 ± 1.1 nM |

| Compound | IC50 [1, 3] [nM] | other results |
| --- | --- | --- |
| C[C@@H](O)[C@@H]1NC(=O)[C@H](CCCCN)NC(=O)[C@@H](Cc2c[nH]c3ccccc23)NC(=O)[C@H](Cc2ccc(O)cc2)NC(=O)[C@@H](NC(=O)[C@@H](Cc2ccccc2)NC(=O)CCOCCOCCNC(=O)CN2CCN(CC(=O)O)CCN(CC(N)=O)CCN(CC(=O)O)CC2)CSSC[C@@H](C(=O)N[C@H](CO)[C@@H](C)O)NC1=O [PSC-PEG2-TOC] | 5.3 ± 1.2 |  |
